Reference: US20230278972A1, “SUBSTITUTED HALOALKYL SULFONANILIDE HERBICIDES” (FMC Corporation, priority 2020, published 2023)

Key:
Format in all cases: in vivo
kochia (Bassia scoparia) [1] = assay: Test A preemergence, kochia; details: Preemergence; for Kochia plant response rating: 125 g ai/ha, visual injury on 0 to 100 scale (0 no effect, 100 complete control), approximately 10 days; for Plant response rating, Kochia: 0 to 100 scale (0 no effect, 100 complete control)
In short: (§1)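 Seeds are sown in loam mixed with sand and sprayed on the soil surface right after planting for the preemergence test. Postemergence pots are sprayed once seedlings reach 2 to 10 cm at the one- to two-leaf stage. The same surfactant-containing, non-phytotoxic solvent formulation serves both.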

kochia (Bassia scoparia) [2] = assay: Test A postemergence, kochia; details: Postemergence, 0 to 100 scale (0 no effect, 100 complete control); for Kochia plant response rating: 500 g ai/ha, visual injury vs untreated controls after approx. 10 days
In short: as §1

[3] = tested on: ragweed (common ragweed, Ambrosia artemisiifolia); assay: Test A preemergence, ragweed; details: Preemergence; for Ragweed plant response rating: 125 g ai/ha, visual injury on 0 to 100 scale (0 no effect, 100 complete control), approximately 10 days; for Plant response rating, Ragweed: 0 to 100 scale (0 no effect, 100 complete control)
In short: as §1

[4] = tested on: pigweed (Amaranthus retroflexus); assay: Test A postemergence, pigweed; details: Postemergence, 0 to 100 scale (0 no effect, 100 complete control); for Pigweed plant response rating: 500 g ai/ha, visual injury vs untreated controls after approx. 10 days
In short: as §1

[5] = tested on: Ryegrass, Italian (Italian ryegrass, Lolium multiflorum); assay: Test A preemergence, Ryegrass, Italian; details: Preemergence; for Ryegrass, Italian plant response rating: 125 g ai/ha, visual injury on 0 to 100 scale (0 no effect, 100 complete control), approximately 10 days; for Plant response rating, Ryegrass, Italian: 0 to 100 scale (0 no effect, 100 complete control)
In short: as §1

[6] = tested on: ragweed (common ragweed, Ambrosia artemisiifolia); assay: Test A postemergence, ragweed; details: Postemergence, 0 to 100 scale (0 no effect, 100 complete control); for Ragweed plant response rating: 500 g ai/ha, visual injury vs untreated controls after approx. 10 days
In short: as §1

[7] = tested on: galium (catchweed bedstraw, Galium aparine); assay: Test A postemergence, galium; details: Postemergence, 0 to 100 scale (0 no effect, 100 complete control); for Galium plant response rating: 500 g ai/ha, visual injury vs untreated controls after approx. 10 days
In short: (§2)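 Postemergence ratings come from foliar sprays onto one- to two-leaf plants of 2 to 10 cm grown in loam/sand; preemergence ratings come from a directed spray onto the soil of newly seeded pots. Formulation was a surfactant-containing non-phytotoxic solvent blend.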

[8] = tested on: Ryegrass, Italian (Italian ryegrass, Lolium multiflorum); assay: Test A postemergence, Ryegrass, Italian; details: Postemergence, 0 to 100 scale (0 no effect, 100 complete control); for Ryegrass, Italian plant response rating: 500 g ai/ha, visual injury vs untreated controls after approx. 10 days
In short: as §1

[9] = tested on: pigweed (Amaranthus retroflexus); assay: Test A preemergence, pigweed; details: for Pigweed plant response rating: 125 g ai/ha, visual injury on 0 to 100 scale (0 no effect, 100 complete control), approximately 10 days; for Plant response rating, Pigweed: 0 to 100 scale (0 no effect, 100 complete control)
In short: as §2

[10] = tested on: Foxtail, Giant (giant foxtail, Setaria faberi); assay: Test A preemergence, Foxtail, Giant; details: Preemergence; for Foxtail, Giant plant response rating: 125 g ai/ha, visual injury on 0 to 100 scale (0 no effect, 100 complete control), approximately 10 days; for Plant response rating, Foxtail, Giant: 0 to 100 scale (0 no effect, 100 complete control)
In short: as §1

[11] = tested on: wheat (Triticum aestivum); assay: Test A postemergence, wheat; details: Postemergence, 0 to 100 scale (0 no effect, 100 complete control); for Wheat plant response rating: 500 g ai/ha, visual injury vs untreated controls after approx. 10 days
In short: as §2

[12] = tested on: barnyardgrass (Echinochloa crus-galli); assay: Test A postemergence, barnyardgrass; details: Postemergence, 0 to 100 scale (0 no effect, 100 complete control); for Barnyardgrass plant response rating: 500 g ai/ha, visual injury vs untreated controls after approx. 10 days
In short: as §2

[13] = tested on: Foxtail, Giant (giant foxtail, Setaria faberi); assay: Test A postemergence, Foxtail, Giant; details: Postemergence, 0 to 100 scale (0 no effect, 100 complete control); for Foxtail, Giant plant response rating: 500 g ai/ha, visual injury vs untreated controls after approx. 10 days
In short: as §1

corn (Zea mays) = assay: Test A postemergence, corn; details: Postemergence, 0 to 100 scale (0 no effect, 100 complete control); for Corn plant response rating: 500 g ai/ha, visual injury vs untreated controls after approx. 10 days
In short: as §1

[14] = tested on: blackgrass (Alopecurus myosuroides); assay: Test A postemergence, blackgrass; details: Postemergence, 0 to 100 scale (0 no effect, 100 complete control); for Blackgrass plant response rating: 500 g ai/ha, visual injury vs untreated controls after approx. 10 days
In short: as §1

[15] = tested on: barnyardgrass (Echinochloa crus-galli); assay: Test A preemergence, barnyardgrass; details: Preemergence; for Barnyardgrass plant response rating: 125 g ai/ha, visual injury on 0 to 100 scale (0 no effect, 100 complete control), approximately 10 days; for Plant response rating, Barnyardgrass: 0 to 100 scale (0 no effect, 100 complete control)
In short: as §1

[16] = 125 g ai/ha, visual injury approx. 10 days
[17] = 1000 g ai/ha, visual injury, approx. 10 days

| SMILES | Kochia plant response rating (kochia (Bassia scoparia) [1]) | Plant response rating, Kochia (kochia (Bassia scoparia) [1]; 500 g ai/ha) | Plant response rating, Kochia (kochia (Bassia scoparia) [2]; [16]) | Kochia plant response rating (kochia (Bassia scoparia) [2]) | Ragweed plant response rating [3] | Plant response rating, Ragweed ([3]; 500 g ai/ha) | Pigweed plant response rating [4] | Ryegrass, Italian plant response rating [5] | Plant response rating, Ryegrass, Italian ([5]; 500 g ai/ha) | Ragweed plant response rating [6] | Plant response rating, Galium [7, 16] | Galium plant response rating [7] | Ryegrass, Italian plant response rating [8] | Pigweed plant response rating [9] | Plant response rating, Pigweed ([9]; 500 g ai/ha) | Foxtail, Giant plant response rating [10] | Plant response rating, Foxtail, Giant ([10]; 500 g ai/ha) | Wheat plant response rating [11] | Plant response rating, Barnyardgrass [12, 16] | Barnyardgrass plant response rating [12] | other results |
| --- | --- | --- | --- | --- | --- | --- | --- | --- | --- | --- | --- | --- | --- | --- | --- | --- | --- | --- | --- | --- | --- |
| Cc1cc(F)c(-c2ccnn(C)c2=O)cc1NS(=O)(=O)C(F)(F)F [Compound 63] | 40 | 90 | 70 | 90 | 30 | 80 | 80 | 90 | 100 | 60 | 90 | 90 | 70 | 70 | 90 | 90 | 100 | 80 | 10 | 90 | Plant response rating, Pigweed [4, 16]: 30; Plant response rating, Ragweed [6, 16]: 10; Plant response rating, Ryegrass, Italian [8, 16]: 30; Plant response rating, Wheat [11, 16]: 0; Plant response rating, Foxtail, Giant [13, 16]: 70; Foxtail, Giant plant response rating [13]: 90; Plant response rating, Corn (corn (Zea mays); [16]): 0; Corn plant response rating (corn (Zea mays)): 50; Plant response rating, Blackgrass [14, 16]: 0; Blackgrass plant response rating [14]: 40; Barnyardgrass plant response rating [15]: 70; Plant response rating, Barnyardgrass ([15]; 500 g ai/ha): 90 |
| Cc1cc(C)c(C(=O)N2CCC(C(C)(C)C)CC2)cc1NS(=O)(=O)C(F)(F)F [Compound 261] |  |  |  |  |  |  |  |  |  |  |  |  |  |  |  |  |  |  |  |  | Plant response rating, Kochia (kochia (Bassia scoparia) [1]; 1000 g ai/ha): 0; Plant response rating, Kochia (kochia (Bassia scoparia) [2]; [17]): 0; Plant response rating, Ragweed ([3]; 1000 g ai/ha): 0; Plant response rating, Pigweed [4, 17]: 30; Plant response rating, Ryegrass, Italian ([5]; 1000 g ai/ha): 60; Plant response rating, Ragweed [6, 17]: 0; Plant response rating, Galium [7, 17]: 50; Plant response rating, Ryegrass, Italian [8, 17]: 20; Plant response rating, Pigweed ([9]; 1000 g ai/ha): 20; Plant response rating, Foxtail, Giant ([10]; 1000 g ai/ha): 90; Plant response rating, Wheat [11, 17]: 0; Plant response rating, Barnyardgrass [12, 17]: 0; Plant response rating, Foxtail, Giant [13, 17]: 0; Plant response rating, Corn (corn (Zea mays); [17]): 10; Plant response rating, Blackgrass [14, 17]: 0; Plant response rating, Barnyardgrass ([15]; 1000 g ai/ha): 60 |
| Cc1cc(C#N)c(C(=O)N(C)C)cc1NS(=O)(=O)C(F)(F)F [Compound 134] | 0 | 0 | 40 | 70 | 10 | 30 | 90 | 20 | 90 | 40 | 50 | 80 | 0 | 80 | 90 | 40 | 100 | 0 | 0 | 10 | Plant response rating, Pigweed ([4]; 125 g ai/ha): 50; Plant response rating, Ragweed ([6]; 125 g ai/ha): 70; Plant response rating, Ryegrass, Italian ([8]; 125 g ai/ha): 0; Plant response rating, Wheat ([11]; 125 g ai/ha): 0; Plant response rating, Foxtail, Giant [13, 16]: 0; Foxtail, Giant plant response rating [13]: 10; Plant response rating, Corn (corn (Zea mays); [16]): 0; Corn plant response rating (corn (Zea mays)): 0; Plant response rating, Blackgrass [14, 16]: 0; Blackgrass plant response rating [14]: 0; Barnyardgrass plant response rating [15]: 0; Plant response rating, Barnyardgrass ([15]; 500 g ai/ha): 40 |
